From ChEMBL document CHEMBL4765468, “Development of Novel Tetrahydroquinoline Inhibitors of NLRP3 Inflammasome for Potential Treatment of DSS-Induced Mouse Colitis” (J Med Chem, 2021)

system: THP-1; assay: Cytotoxicity in human THP-1 cells assessed as reduction in cell viability incubated for 72 hrs by MTT assay; assay type: cell-based; conditions: THP-1, 72 h

For `CC(C)(O)c1coc(S(=O)(=O)NC(=O)Nc2c3c(cc4c2CCC4)CCC3)c1`, which IC50 is on record?
Its IC50 is 98.8 µM.

With `CS(=O)(=O)N1CCCc2ccc(N(S(C)(=O)=O)S(C)(=O)=O)cc21` as the compound, how does the IC50 read?
The IC50 was greater than 100 µM.

With `CS(=O)(=O)N1CCCc2ccc(N(S(=O)(=O)c3ccc(F)cc3)S(=O)(=O)c3ccc(F)cc3)cc21` as the compound, how does the IC50 read?
Its IC50 is greater than 100 µM.

For `CS(=O)(=O)N1CCCc2ccc(N(S(=O)(=O)c3cccc(F)c3)S(=O)(=O)c3cccc(F)c3)cc21`, which IC50 is on record?
The IC50 was 71.8 µM.

Which IC50 does the source give for `CS(=O)(=O)N1CCCc2ccc(N(S(=O)(=O)c3ccc(C(F)(F)F)cc3)S(=O)(=O)c3ccc(C(F)(F)F)cc3)cc21` here?
Its IC50 is 8.32 µM.

For `CCCS(=O)(=O)N(c1ccc2c(c1)N(S(C)(=O)=O)CCC2)S(=O)(=O)CCC`, which IC50 is on record?
The IC50 was 98.8 µM.

For `CS(=O)(=O)N1CCCc2ccc(N(S(=O)(=O)CCN3C(=O)c4ccccc4C3=O)S(=O)(=O)CCN3C(=O)c4ccccc4C3=O)cc21`, which IC50 is on record?
Its IC50 is greater than 100 µM.

`CS(=O)(=O)N1CCCc2ccc(N(S(=O)(=O)c3ccccc3F)S(=O)(=O)c3ccccc3F)cc21` was tested. Which IC50 did it give?
Its IC50 is greater than 100 µM.

With `CS(=O)(=O)N1CCCc2ccc(N(S(=O)(=O)c3cccc4ccccc34)S(=O)(=O)c3cccc4ccccc34)cc21` as the compound, how does the IC50 read?
The IC50 was greater than 100 µM.

`CS(=O)(=O)N1CCCc2ccc(N(S(=O)(=O)c3ccc(Br)cc3)S(=O)(=O)c3ccc(Br)cc3)cc21` was tested. Which IC50 did it give?
Its IC50 is 66.6 µM.

For `COC(=O)c1ccc(S(=O)(=O)N(c2ccc3c(c2)N(S(C)(=O)=O)CCC3)S(=O)(=O)c2ccc(C(=O)OC)cc2)cc1`, which IC50 is on record?
The IC50 was greater than 100 µM.

For `Cc1ccc(S(=O)(=O)N(c2ccc3c(c2)N(S(C)(=O)=O)CCC3)S(=O)(=O)c2ccc(C)cc2)cc1`, which IC50 is on record?
Its IC50 is 78.4 µM.

For `CCS(=O)(=O)N(c1ccc2c(c1)N(S(C)(=O)=O)CCC2)S(=O)(=O)CC`, which IC50 is on record?
The IC50 was greater than 100 µM.

With `CS(=O)(=O)N1CCCc2ccc(N(S(=O)(=O)c3ccc(C#N)cc3)S(=O)(=O)c3ccc(C#N)cc3)cc21` as the compound, how does the IC50 read?
The IC50 was 35.9 µM.

With `CS(=O)(=O)N1CCCc2ccc(N(S(=O)(=O)c3cc(C(F)(F)F)cc(C(F)(F)F)c3)S(=O)(=O)c3cc(C(F)(F)F)cc(C(F)(F)F)c3)cc21` as the compound, how does the IC50 read?
Its IC50 is 34.7 µM.

Which IC50 does the source give for `CS(=O)(=O)N1CCCc2ccc(N(S(=O)(=O)Cc3ccccc3)S(=O)(=O)Cc3ccccc3)cc21` here?
The IC50 was greater than 100 µM.

`CC(=O)Nc1ccc(S(=O)(=O)N(c2ccc3c(c2)N(S(C)(=O)=O)CCC3)S(=O)(=O)c2ccc(NC(C)=O)cc2)cc1` was tested. Which IC50 did it give?
The IC50 was greater than 100 µM.

Which IC50 does the source give for `COc1ccc(S(=O)(=O)N(c2ccc3c(c2)N(S(C)(=O)=O)CCC3)S(=O)(=O)c2ccc(OC)cc2)cc1` here?
The IC50 was 90.9 µM.

With `CS(=O)(=O)N1CCCc2ccc(N(S(=O)(=O)c3ccc4ccccc4c3)S(=O)(=O)c3ccc4ccccc4c3)cc21` as the compound, how does the IC50 read?
The IC50 was 97.2 µM.

For `CS(=O)(=O)N1CCCc2ccc(N(S(=O)(=O)c3ccc(-c4ccccc4)cc3)S(=O)(=O)c3ccc(-c4ccccc4)cc3)cc21`, which IC50 is on record?
Its IC50 is greater than 100 µM.

`CS(=O)(=O)N1CCCc2ccc(N(S(=O)(=O)c3ccccc3)S(=O)(=O)c3ccccc3)cc21` was tested. Which IC50 did it give?
Its IC50 is greater than 100 µM.

`CS(=O)(=O)N1CCCc2ccc(N(S(=O)(=O)c3ccc(Cl)cc3)S(=O)(=O)c3ccc(Cl)cc3)cc21` was tested. Which IC50 did it give?
The IC50 was greater than 100 µM.

How did the IC50 turn out when `CS(=O)(=O)N1CCCc2ccc(N(S(=O)(=O)c3ccccc3[N+](=O)[O-])S(=O)(=O)c3ccccc3[N+](=O)[O-])cc21` was run?
The IC50 was greater than 100 µM.

`CS(=O)(=O)N1CCCc2ccc(N(S(=O)(=O)c3cccnc3)S(=O)(=O)c3cccnc3)cc21` was tested. Which IC50 did it give?
Its IC50 is 71.1 µM.

`CS(=O)(=O)N1CCCc2ccc(N(S(=O)(=O)c3cccs3)S(=O)(=O)c3cccs3)cc21` was tested. Which IC50 did it give?
The IC50 was greater than 100 µM.

Which IC50 does the source give for `CCCCS(=O)(=O)N(c1ccc2c(c1)N(S(C)(=O)=O)CCC2)S(=O)(=O)CCCC` here?
The IC50 was 95.5 µM.

`CS(=O)(=O)N1CCCc2ccc(N(S(=O)(=O)c3ccc([N+](=O)[O-])cc3)S(=O)(=O)c3ccc([N+](=O)[O-])cc3)cc21` was tested. Which IC50 did it give?
Its IC50 is 65.3 µM.

target: NACHT, LRR and PYD domains-containing protein 3 (Homo sapiens, UniProt Q96P20); assay: Inhibition of NLRP3 in PMA-stimulated human THP-1 cells assessed as reduction in IL-1beta release pre-treated for 24 hrs followed by stimulation with LPS for 3 hrs and ATP for 1 hr by ELISA analysis; assay type: cell-based; conditions: not given
Sequence (Q96P20 whole entry, the tested form may be a part): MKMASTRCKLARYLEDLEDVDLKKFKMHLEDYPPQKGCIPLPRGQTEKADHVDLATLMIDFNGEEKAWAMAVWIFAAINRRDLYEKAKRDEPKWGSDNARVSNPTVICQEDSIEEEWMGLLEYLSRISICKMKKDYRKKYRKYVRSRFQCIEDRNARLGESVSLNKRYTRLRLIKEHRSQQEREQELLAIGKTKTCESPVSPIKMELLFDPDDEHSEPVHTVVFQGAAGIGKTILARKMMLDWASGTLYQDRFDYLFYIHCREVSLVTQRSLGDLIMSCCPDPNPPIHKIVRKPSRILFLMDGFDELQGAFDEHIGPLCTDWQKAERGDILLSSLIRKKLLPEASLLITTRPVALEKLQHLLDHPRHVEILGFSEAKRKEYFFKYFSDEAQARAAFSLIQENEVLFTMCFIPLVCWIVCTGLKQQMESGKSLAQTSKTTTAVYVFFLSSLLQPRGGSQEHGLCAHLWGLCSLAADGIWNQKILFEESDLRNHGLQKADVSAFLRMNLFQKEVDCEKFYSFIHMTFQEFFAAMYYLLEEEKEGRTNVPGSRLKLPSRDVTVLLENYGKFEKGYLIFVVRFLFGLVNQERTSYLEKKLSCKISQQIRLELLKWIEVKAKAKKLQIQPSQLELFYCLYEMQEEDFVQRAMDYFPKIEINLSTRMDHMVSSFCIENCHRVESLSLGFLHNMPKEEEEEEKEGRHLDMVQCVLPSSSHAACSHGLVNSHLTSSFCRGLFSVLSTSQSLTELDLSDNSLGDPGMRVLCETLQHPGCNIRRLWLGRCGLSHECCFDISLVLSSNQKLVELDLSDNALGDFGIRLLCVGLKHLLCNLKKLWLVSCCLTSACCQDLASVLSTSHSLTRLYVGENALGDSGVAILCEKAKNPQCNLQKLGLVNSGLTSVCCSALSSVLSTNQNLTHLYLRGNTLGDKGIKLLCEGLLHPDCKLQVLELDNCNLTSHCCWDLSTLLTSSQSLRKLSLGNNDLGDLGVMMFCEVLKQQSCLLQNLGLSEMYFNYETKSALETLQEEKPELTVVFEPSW

With `CS(=O)(=O)N1CCCc2ccc(N(S(=O)(=O)c3ccccc3[N+](=O)[O-])S(=O)(=O)c3ccccc3[N+](=O)[O-])cc21` as the compound, how does the IC50 read?
The IC50 was 13.7 µM.
